Test results published in ChEMBL document CHEMBL3763146 (J Med Chem, 2016).

Tests used:
[1] = Fraction unbound in rhesus monkey at 0.5 mg/kg, iv or 2 mg/kg, po; type: ADME, organism-based, Macaca mulatta; details: in vivo
[2] = target: T1, Beta-3 adrenergic receptor (Macaca mulatta, UniProt Q28524); experiment: Agonist activity at rhesus monkey beta3 adrenergic receptor expressed in CHO cells assessed as accumulation of cAMP after 30 mins by TR-FRET assay in presence of 40% serum; type: functional, cell-based
T1 sequence (Q28524 whole entry): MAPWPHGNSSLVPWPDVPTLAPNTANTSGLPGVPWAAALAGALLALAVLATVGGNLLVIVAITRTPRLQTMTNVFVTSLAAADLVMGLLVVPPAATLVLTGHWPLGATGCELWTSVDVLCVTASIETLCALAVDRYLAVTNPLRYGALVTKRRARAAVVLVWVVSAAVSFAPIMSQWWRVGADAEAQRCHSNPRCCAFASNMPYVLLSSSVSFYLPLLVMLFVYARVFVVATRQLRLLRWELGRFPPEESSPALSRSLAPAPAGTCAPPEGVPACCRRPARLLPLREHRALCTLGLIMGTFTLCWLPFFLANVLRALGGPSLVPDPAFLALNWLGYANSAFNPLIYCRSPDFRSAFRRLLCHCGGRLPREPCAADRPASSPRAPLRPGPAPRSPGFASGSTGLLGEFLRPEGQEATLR

Cytochrome P450 3A4 = Cytochrome P450 3A4 (Homo sapiens, UniProt P08684); experiment: Inhibition of CYP3A4 in human liver microsomes assessed as testosterone 6beta-hydroxylation; type: ADME
Chain of Cytochrome P450 3A4 (P08684 whole entry): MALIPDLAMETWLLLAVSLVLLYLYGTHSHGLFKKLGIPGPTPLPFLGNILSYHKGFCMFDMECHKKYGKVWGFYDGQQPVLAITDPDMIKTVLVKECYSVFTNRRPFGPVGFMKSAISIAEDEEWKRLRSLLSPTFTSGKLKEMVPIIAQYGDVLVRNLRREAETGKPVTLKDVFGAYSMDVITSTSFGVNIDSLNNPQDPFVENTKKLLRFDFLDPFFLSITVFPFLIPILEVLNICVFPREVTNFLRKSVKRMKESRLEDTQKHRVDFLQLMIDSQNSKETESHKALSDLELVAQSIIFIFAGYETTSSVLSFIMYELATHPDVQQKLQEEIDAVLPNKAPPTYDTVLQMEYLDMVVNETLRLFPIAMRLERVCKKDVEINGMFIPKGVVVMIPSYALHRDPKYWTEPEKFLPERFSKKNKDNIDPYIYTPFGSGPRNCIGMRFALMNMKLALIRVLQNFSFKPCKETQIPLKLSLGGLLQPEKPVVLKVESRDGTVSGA

[3] = Induction of phospholidosis in human HepG2 cells incubated overnight by […] in presence of fluorescent labeled phospholipid probe NBD-PE; type: cell-based; details: read-out: A50
Canis familiaris [4] = experiment: Dose normalized total AUC in dog at 2 mg/kg, po; type: ADME, organism-based, Canis lupus familiaris; details: in vivo
[5] = Fraction unbound in rat at 1 mg/kg, iv or 2 mg/kg, po; type: ADME, organism-based; details: in vivo
Rattus norvegicus [6] = experiment: Unbound clearance in rat at 1 mg/kg, iv or 2 mg/kg, po; type: ADME, organism-based; details: in vivo
[7] = Oral bioavailability in rat at 2 mg/kg; type: ADME, organism-based; details: in vivo
[8] = Oral bioavailability in rhesus monkey at 2 mg/kg; type: ADME, organism-based, Macaca mulatta; details: in vivo
[9] = target: Beta-3 adrenergic receptor (Rattus norvegicus) (UniProt P26255); experiment: Agonist activity at rat beta3 adrenergic receptor expressed in CHO cells assessed as accumulation of cAMP after 30 mins by TR-FRET assay relative to (R)-(-)-isoproterenol; type: functional, cell-based
Chain of Beta-3 adrenergic receptor (Rattus norvegicus) (P26255 whole entry): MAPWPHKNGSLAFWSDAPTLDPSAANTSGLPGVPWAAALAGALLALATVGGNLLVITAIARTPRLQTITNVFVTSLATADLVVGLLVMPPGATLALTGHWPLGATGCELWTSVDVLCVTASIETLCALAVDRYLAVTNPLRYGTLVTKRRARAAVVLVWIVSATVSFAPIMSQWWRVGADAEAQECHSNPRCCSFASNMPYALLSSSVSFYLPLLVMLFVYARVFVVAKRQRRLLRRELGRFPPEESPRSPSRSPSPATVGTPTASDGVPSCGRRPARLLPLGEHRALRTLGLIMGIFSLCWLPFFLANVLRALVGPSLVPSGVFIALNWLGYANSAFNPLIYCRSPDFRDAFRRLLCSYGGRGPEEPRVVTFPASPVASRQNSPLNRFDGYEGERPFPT

Cytochrome P450 2D6 = Cytochrome P450 2D6 (Homo sapiens, UniProt P10635); experiment: Inhibition of CYP2D6 in human liver microsomes assessed as dextraomethorphan O-demethylation; type: ADME
Chain of Cytochrome P450 2D6 (P10635 whole entry): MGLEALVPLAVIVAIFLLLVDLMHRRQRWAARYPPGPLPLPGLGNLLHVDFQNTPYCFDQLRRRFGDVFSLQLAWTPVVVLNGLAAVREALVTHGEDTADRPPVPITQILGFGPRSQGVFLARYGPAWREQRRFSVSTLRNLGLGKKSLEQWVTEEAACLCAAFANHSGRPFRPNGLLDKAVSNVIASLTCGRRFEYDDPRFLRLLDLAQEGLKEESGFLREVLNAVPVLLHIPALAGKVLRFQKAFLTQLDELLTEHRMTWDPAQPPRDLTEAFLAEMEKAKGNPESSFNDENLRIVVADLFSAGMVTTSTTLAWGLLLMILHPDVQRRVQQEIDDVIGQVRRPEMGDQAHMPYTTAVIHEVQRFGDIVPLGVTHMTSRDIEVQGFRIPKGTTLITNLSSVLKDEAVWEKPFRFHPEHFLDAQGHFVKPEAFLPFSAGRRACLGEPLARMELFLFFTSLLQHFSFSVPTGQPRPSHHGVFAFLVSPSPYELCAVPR

[10] = target: Beta-3 adrenergic receptor (Rattus norvegicus, UniProt P26255); experiment: Agonist activity at rat beta3 adrenergic receptor expressed in CHO cells assessed as accumulation of cAMP after 30 mins by TR-FRET assay; type: functional, cell-based
Chain of Beta-3 adrenergic receptor (Rattus norvegicus, UniProt P26255) (P26255 whole entry): as the sequence (P26255 whole entry) above

[11] = Fraction unbound in dog at 0.5 mg/kg, iv or 2 mg/kg, po; type: ADME, organism-based, Canis lupus familiaris; details: in vivo
[12] = target: Beta-3 adrenergic receptor (Canis lupus familiaris, UniProt O02662); experiment: Agonist activity at dog beta3 adrenergic receptor expressed in CHO cells assessed as accumulation of cAMP after 30 mins by TR-FRET assay; type: functional, cell-based
Chain of Beta-3 adrenergic receptor (Canis lupus familiaris, UniProt O02662) (O02662 whole entry): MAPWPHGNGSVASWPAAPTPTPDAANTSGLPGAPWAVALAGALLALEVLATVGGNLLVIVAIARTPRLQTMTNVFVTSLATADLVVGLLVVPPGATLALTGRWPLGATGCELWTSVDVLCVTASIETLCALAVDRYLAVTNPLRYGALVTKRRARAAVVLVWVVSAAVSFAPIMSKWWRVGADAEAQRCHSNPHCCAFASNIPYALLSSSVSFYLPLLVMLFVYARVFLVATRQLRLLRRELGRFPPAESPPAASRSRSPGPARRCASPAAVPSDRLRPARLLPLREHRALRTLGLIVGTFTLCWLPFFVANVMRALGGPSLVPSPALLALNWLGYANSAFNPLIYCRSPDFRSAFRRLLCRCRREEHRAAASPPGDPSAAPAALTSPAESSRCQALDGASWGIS

[13] = target: T2, Beta-3 adrenergic receptor (Homo sapiens, UniProt P13945); experiment: Agonist activity at human beta3 adrenergic receptor expressed in CHO cells assessed as accumulation of cAMP after 30 mins by TR-FRET assay relative to (R)-(-)-isoproterenol; type: functional, cell-based
T2 sequence (P13945 whole entry, looked up): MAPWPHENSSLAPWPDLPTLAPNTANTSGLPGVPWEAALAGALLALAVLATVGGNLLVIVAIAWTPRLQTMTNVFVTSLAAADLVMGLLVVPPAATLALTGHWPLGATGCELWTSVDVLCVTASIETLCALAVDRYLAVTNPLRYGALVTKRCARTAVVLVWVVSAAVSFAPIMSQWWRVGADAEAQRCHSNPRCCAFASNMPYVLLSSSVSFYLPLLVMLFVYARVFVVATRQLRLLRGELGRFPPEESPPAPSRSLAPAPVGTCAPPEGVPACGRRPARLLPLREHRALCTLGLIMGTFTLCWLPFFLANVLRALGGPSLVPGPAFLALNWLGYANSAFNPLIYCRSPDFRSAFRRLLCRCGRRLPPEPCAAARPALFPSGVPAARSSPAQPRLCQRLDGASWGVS

[14] = Distribution coefficient, logD of the compound at pH 7.4; type: physicochemical; details: octanol/water
[15] = target: Sodium-dependent serotonin transporter (Homo sapiens, UniProt P31645); experiment: Inhibition of human SERT expressed in HEK293 cells preincubated for 30 mins followed by fluorescent substrate addition measured after 30 mins by plate reader analysis; type: cell-based
Chain of Sodium-dependent serotonin transporter (P31645 whole entry): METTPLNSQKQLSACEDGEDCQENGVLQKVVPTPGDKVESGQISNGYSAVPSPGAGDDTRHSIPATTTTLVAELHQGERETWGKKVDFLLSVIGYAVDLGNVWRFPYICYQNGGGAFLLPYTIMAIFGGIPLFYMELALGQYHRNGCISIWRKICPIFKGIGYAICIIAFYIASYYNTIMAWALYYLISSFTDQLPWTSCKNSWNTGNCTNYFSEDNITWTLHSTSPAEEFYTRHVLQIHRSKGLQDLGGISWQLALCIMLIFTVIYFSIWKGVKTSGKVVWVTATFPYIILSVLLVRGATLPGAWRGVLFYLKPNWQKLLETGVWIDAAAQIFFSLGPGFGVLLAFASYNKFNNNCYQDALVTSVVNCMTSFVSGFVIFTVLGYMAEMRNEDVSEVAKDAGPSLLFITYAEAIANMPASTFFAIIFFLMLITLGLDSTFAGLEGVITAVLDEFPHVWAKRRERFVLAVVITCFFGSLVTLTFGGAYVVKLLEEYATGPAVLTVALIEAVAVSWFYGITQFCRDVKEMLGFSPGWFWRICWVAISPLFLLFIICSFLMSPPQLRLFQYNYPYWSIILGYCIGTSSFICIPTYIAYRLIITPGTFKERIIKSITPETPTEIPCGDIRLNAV

[16] = Oral bioavailability in dog at 2 mg/kg; type: ADME, organism-based, Canis lupus familiaris; details: in vivo
Canis familiaris [17] = experiment: Unbound clearance in dog at 0.5 mg/kg, iv or 2 mg/kg, po; type: ADME, organism-based, Canis lupus familiaris; details: in vivo
Rattus norvegicus [18] = experiment: Dose normalized total AUC in rat at 2 mg/kg, po; type: ADME, organism-based; details: in vivo
[19] = target: Beta-3 adrenergic receptor (Macaca mulatta) (UniProt Q28524); experiment: Agonist activity at rhesus monkey beta3 adrenergic receptor expressed in CHO cells assessed as accumulation of cAMP after 30 mins by TR-FRET assay relative to (R)-(-)-isoproterenol; type: functional, cell-based
Chain of Beta-3 adrenergic receptor (Macaca mulatta) (Q28524 whole entry): as the sequence (Q28524 whole entry) above

[20] = target: T1, Beta-3 adrenergic receptor; experiment: Agonist activity at rhesus monkey beta3 adrenergic receptor expressed in CHO cells assessed as accumulation of cAMP after 30 mins by TR-FRET assay; type: functional, cell-based
Cytochrome P450 2C9 = Cytochrome P450 2C9 (Homo sapiens, UniProt P11712); experiment: Inhibition of CYP2C9 in human liver microsomes assessed as diclofenac alpha'-hydroxylation; type: ADME
Chain of Cytochrome P450 2C9 (P11712 whole entry): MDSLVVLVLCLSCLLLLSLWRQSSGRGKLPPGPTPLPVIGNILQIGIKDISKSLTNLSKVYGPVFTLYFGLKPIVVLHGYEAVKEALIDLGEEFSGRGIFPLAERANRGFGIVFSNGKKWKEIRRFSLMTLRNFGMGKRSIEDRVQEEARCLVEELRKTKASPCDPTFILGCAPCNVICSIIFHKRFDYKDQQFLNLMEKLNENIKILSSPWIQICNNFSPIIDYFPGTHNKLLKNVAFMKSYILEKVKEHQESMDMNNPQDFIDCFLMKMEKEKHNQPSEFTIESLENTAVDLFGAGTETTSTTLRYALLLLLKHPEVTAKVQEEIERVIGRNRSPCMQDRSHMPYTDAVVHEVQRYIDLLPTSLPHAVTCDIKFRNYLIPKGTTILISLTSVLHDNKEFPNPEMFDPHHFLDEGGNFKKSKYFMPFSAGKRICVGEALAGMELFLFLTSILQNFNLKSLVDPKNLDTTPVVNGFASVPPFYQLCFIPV

[21] = target: Voltage-dependent L-type calcium channel subunit alpha-1C (Homo sapiens, UniProt Q13936); experiment: Displacement of [3H]-diltiazem from human Cav1.2 channel
Rhesus monkey [22] = experiment: Unbound clearance in rhesus monkey at 0.5 mg/kg, iv or 2 mg/kg, po; type: ADME, organism-based, Macaca mulatta; details: in vivo
[23] = target: Beta-3 adrenergic receptor (Macaca mulatta) (UniProt Q28524); experiment: Agonist activity at rhesus monkey beta3 adrenergic receptor expressed in CHO cells assessed as accumulation of cAMP after 30 mins by TR-FRET assay in presence of 40% serum relative to (R)-(-)-isoproterenol; type: functional, cell-based
Rhesus monkey [24] = experiment: Dose normalized total AUC in rhesus monkey at 2 mg/kg, po; type: ADME, organism-based, Macaca mulatta; details: in vivo
[25] = target: Voltage-gated inwardly rectifying potassium channel KCNH2 (Homo sapiens, UniProt Q12809); experiment: Binding affinity to human ERG channel
Chain of Voltage-gated inwardly rectifying potassium channel KCNH2 (Q12809 whole entry): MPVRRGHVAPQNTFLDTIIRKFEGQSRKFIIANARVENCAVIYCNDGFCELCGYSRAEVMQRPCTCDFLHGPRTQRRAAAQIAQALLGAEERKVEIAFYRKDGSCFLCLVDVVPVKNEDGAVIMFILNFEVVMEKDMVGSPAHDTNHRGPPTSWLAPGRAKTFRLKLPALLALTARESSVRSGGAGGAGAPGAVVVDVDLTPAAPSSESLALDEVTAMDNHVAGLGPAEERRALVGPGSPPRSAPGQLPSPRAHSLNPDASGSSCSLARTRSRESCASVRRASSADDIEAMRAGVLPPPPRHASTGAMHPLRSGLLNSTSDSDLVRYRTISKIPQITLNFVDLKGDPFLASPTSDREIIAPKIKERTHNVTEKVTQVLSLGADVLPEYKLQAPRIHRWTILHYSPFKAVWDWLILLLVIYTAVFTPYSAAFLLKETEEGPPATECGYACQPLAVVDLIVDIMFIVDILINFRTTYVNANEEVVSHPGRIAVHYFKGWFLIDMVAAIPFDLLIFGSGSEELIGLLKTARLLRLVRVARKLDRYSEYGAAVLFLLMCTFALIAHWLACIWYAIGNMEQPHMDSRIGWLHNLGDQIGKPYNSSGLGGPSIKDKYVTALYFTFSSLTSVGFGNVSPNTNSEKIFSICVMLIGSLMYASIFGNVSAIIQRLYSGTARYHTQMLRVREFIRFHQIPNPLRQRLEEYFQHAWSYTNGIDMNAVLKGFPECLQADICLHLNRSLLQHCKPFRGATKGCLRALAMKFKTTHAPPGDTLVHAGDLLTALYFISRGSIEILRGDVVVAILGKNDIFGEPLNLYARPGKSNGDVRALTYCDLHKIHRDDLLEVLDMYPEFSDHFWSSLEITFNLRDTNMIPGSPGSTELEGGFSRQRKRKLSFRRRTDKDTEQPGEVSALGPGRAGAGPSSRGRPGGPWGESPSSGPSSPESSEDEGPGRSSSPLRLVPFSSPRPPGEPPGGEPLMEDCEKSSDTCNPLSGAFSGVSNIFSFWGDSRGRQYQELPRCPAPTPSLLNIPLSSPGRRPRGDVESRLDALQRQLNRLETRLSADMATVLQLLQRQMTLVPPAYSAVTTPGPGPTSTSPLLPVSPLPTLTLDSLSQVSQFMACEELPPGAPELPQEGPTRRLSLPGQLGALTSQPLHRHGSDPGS

[26] = Solubility of the compound in buffer at pH >= […]; type: physicochemical
[27] = target: T2, Beta-3 adrenergic receptor; experiment: Agonist activity at human adrenergic beta3 receptor expressed in CHO cells assessed as accumulation of cAMP after 30 mins by TR-FRET assay in presence of 40% serum relative to (R)-(-)-isoproterenol; type: functional, cell-based

Q: What does the source list for `O=S(=O)(Nc1ccc(CCNC[C@H](O)c2cccnc2)cc1)c1ccc(-c2nc(-c3ccc(C(F)(F)F)cc3)cs2)cc1`?
A: fraction unbound [1]: ≤ 0.02; EC50 [2]: 17 nM; IC50 (Cytochrome P450 3A4): 9300 nM; AC50 [3]: 560 nM; AUC/dose (Canis familiaris [4]): 290 nM·h/mg/kg; fraction unbound [5]: ≤ 0.02; CL free (Rattus norvegicus [6]): > 3100 mL/min/kg; bioavailability [7]: 17%; bioavailability [8]: 4%; max activation [9]: 17%; IC50 (Cytochrome P450 2D6): 11000 nM; EC50 [10]: 3400 nM; fraction unbound [11]: ≤ 0.02; EC50 [12]: 25 nM; max activation [13]: 93%; logD [14]: 4.7; IC50 [15]: 5000 nM; bioavailability [16]: 27%; CL free (Canis familiaris [17]): > 1000 mL/min/kg; AUC/dose (Rattus norvegicus [18]): 70 nM·h/mg/kg; max activation [19]: 81%; EC50 [20]: 0.43 nM; IC50 (Cytochrome P450 2C9): 24000 nM; IC50 [21]: 1700 nM; CL free (Rhesus monkey [22]): > 950 mL/min/kg; max activation [23]: 17%; AUC/dose (Rhesus monkey [24]): 50 nM·h/mg/kg; IC50 [25]: 220 nM; solubility [26]: < 100 µg/mL; max activation [27]: 106%
